Measurements taken from patent publication US6469028B1, “Synthesis and use of retinoid compounds having negative hormone and/or anatgonist activities” (Allergan, Inc., priority 1995, dated 2002).

Legend:
Experiment in all cases: Holoreceptor transactivation assay
Type in all cases: cell-based
RXRγ = target: T1, RXRγ (Mus musculus, UniProt P28705); conditions: relative to all trans retinoic acid; read-out: Transactivation Assay Efficacy (% of RA activity) RXRγ
T1 construct: expressed in transfected cells; host or cells: CV1 cells
T1 sequence (P28705 1-463): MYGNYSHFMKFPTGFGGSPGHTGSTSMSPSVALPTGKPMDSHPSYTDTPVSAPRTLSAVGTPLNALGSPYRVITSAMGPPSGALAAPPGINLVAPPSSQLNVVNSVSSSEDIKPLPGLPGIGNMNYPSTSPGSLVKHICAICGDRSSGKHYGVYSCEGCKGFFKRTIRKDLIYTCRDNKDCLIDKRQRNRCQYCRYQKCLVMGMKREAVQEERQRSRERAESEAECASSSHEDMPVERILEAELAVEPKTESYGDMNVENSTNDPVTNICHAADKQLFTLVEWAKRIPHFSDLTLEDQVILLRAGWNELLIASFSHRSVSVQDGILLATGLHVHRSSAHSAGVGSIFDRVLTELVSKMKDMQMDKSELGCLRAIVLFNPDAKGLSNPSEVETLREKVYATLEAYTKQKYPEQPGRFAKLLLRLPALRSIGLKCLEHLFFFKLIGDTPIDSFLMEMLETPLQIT
Excerpt: (§1) A holoreceptor transactivation assay and a ligand binding assay which measure the antagonist/agonist like activity of the compounds of the invention, or their ability to bind to the several retinoid receptor subtypes, respectively, are described in published PCT Application No. WO93/11755 (particularly on pages 30-33 and 37-41) published on Jun. 24, 1993, the specification of which is also incorporated herein by reference. A description of the holoreceptor transactivation assay is also provided below.
(§2) CV1 cells (5,000 cells/well) were transfected with an RAR reporter plasmid MTV-TREp-LUC (50 ng) along with one of the RAR expression vectors (10 ng) in an automated 96-well format by the calcium phosphate procedure of Heyman et al. Cell 68: 397-406. For RXR-α and RXR-γ transactivation assays, an RXR-responsive reporter plasmid CRBPII-tk-LUC (50 ng) along with the appropriate RXR expression vectors (10 ng) was used substantially as described by Heyman et al. above, and Allegretto et al. J. Biol. Chem. 268: 26625-26633. For RXR-β transactivation assays, an RXR-responsive reporter plasmid CPRE-tk-LUC ([…]) along with RXR-β expression vector ([…]) was used as described in above. These reporters contain DRI elements from human CRBPII and certain DRI elements from promotor, respectively (see Mangelsdorf et al. The Retinoids: Biology Chemistry and Medicine, pp. 319-349, Raven Press Ltd., New York and Heyman et al., cited above). A β-galactosidase (50 ng) expression vector was used as an internal control in the transfections to normalize for variations in transfection efficiency. The cells were transfected in triplicate for 6 hours, followed by incubation with retinoids for 36 hours, and the extracts were assayed for luciferase and […] activities. The detailed experimental procedure for holoreceptor transactivations has been described in Heyman et al. above, and Allegretto et al. cited above. The results obtained in this assay are expressed in EC50 numbers, as they are also in the chimeric receptor transactivation assay. The Heyman et al. Cell 68: 397-406, Allegretto et al. J. Biol. Chem. 268: 26625-26633, and Mangelsdorf et al. The Retinoids: Biology, Chemistry, and Medicine, pp. 319-349, Raven Press Ltd., New York, are expressly incorporated herein by reference. The results of ligand binding assay are expressed in Kd numbers. (See Cheng et al. Biochemical Pharmacology 22: 3099-3108, expressly incorporated herein by reference.)

RXRα = target: T2, RXRα (Homo sapiens, UniProt P19793); conditions: relative to all trans retinoic acid; read-out: Transactivation Assay Efficacy (% of RA activity) RXRα
T2 construct: expressed in transfected cells; host or cells: CV1 cells
T2 sequence (P19793 1-462): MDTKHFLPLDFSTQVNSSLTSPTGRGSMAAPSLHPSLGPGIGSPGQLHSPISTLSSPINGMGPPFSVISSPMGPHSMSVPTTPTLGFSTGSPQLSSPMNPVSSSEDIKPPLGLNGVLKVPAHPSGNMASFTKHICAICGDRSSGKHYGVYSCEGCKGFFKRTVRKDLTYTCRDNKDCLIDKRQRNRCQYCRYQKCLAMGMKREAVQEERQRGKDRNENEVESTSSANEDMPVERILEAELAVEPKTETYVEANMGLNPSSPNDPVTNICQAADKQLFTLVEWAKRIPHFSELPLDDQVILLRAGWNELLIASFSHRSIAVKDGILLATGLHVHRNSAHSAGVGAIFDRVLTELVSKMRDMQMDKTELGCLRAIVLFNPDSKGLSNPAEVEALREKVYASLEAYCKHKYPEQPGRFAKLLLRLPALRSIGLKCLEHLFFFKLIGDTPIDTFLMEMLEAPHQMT
Excerpt: as §1, §2

RXRβ = conditions: relative to all trans retinoic acid
Excerpt: as §1, §2

Compound | Emax (RXRγ) | Emax (RXRα) | Transactivation Assay Efficacy (% of RA activity) RXRβ (RXRβ)
Cc1ccc(C2=CCC(C)(C)c3ccc(C#Cc4ccc(C(=O)O)cc4)cc32)cn1 [Compound 18, 4-[(5,6-Dihydro-5,5-dimethyl-8-(2-methyl-5-pyridyl)-2-naphthalenyl)ethynyl]benzoic acid] | 1% | 2% | 10.00 % of RA activity
CC1(C)CC=C(c2ccccn2)c2cc(C#Cc3ccc(C(=O)O)cc3)ccc21 [Compound 19, 4-[(5,6-Dihydro-5,5-dimethyl-8-(2-pyridyl)-2-naphthalenyl)ethynyl]benzoic acid] | 4% | 0% | 9.0 % of RA activity
Cc1cccc(C2=CCC(C)(C)c3ccc(C#Cc4ccc(C(=O)O)cc4)cc32)c1 [Compound 20, 4-[(5,6-Dihydro-5,5-dimethyl-8-(3-methylphenyl)-2-naphthalenyl)ethynyl]benzoic acid] | 3% | 4% | 0.00 % of RA activity
CCc1ccc(C2=CCC(C)(C)c3ccc(C#Cc4ccc(C(=O)O)cc4)cc32)cc1 [Compound 21, 4-[(5,6-Dihydro-5,5-dimethyl-8-(4-ethylphenyl)-2-naphthalenyl)ethynyl]benzoic acid] | 3% | 3% | 0.00 % of RA activity
COc1ccc(C2=CCC(C)(C)c3ccc(C#Cc4ccc(C(=O)O)cc4)cc32)cc1 [Compound 22, 4-[(5,6-Dihydro-5,5-dimethyl-8-(4-methoxyphenyl)-2-naphthalenyl)ethynyl]benzoic acid] | 2% | 1% | 0.00 % of RA activity
Cc1cc(C)cc(C2=CCC(C)(C)c3ccc(C#Cc4ccc(C(=O)O)cc4)cc32)c1 [Compound 24, 4-[(5 6-Dihydro-5,5-dimethyl-8-(3,5-dimethylphenyl)-2-naphthalenyl)ethynyl]benzoic acid] | 3% | 1% | 0.00 % of RA activity
CC1(C)CC=C(c2cccnc2)c2cc(C#Cc3ccc(C(=O)O)cc3)ccc21 [Compound 26, 4-[(5,6-Dihydro-5,5-dimethyl-8-(3-pyridyl)-2-naphthalenyl)ethynyl]benzoic acid] | 3% | 2% | 0.00 % of RA activity
Cc1ccccc1C1=CCC(C)(C)c2ccc(C#Cc3ccc(C(=O)O)cc3)cc21 [Compound 27, 4-[(5,6-Dihydro-5,5-dimethyl-8-(2-methylphenyl)-2-naphthalenyl)ethynyl]benzoic acid] | 4% | 2% | 0.00 % of RA activity
CC1(C)CC=C(c2cccc(O)c2)c2cc(C#Cc3ccc(C(=O)O)cc3)ccc21 [Compound 28, 4-[(5,6-Dihydro5,5-dimethyl-8-(3-hydroxyphenyl)-2-naphthalenyl)ethynyl]benzoic acid] | 3% | 2% | 0.00 % of RA activity
CC1(C)CC=C(c2ccc(O)cc2)c2cc(C#Cc3ccc(C(=O)O)cc3)ccc21 [Compound 29, 4-[(5,6-Dihydro-5,5-dimethyl-8-(4-hydroxyphenyl)-2-naphthalenyl)ethynyl]benzoic acid] | 2% | 0% | 6.00 % of RA activity
Cc1cnc(C2=CCC(C)(C)c3ccc(C#Cc4ccc(C(=O)O)cc4)cc32)s1 [Compound 30, 4-[(5,6-Dihydro-5,5-dimethyl-8-(5-methylthiazol-2-yl)-2-naphthalenyl)ethynyl]benzoic acid] | 3% | 0% | 9.00 % of RA activity
Cc1csc(C2=CCC(C)(C)c3ccc(C#Cc4ccc(C(=O)O)cc4)cc32)n1 [Compound 31, 4-[(5,6-Dihydro-5,5-dimethyl-8-(4-methylthiazol-2-yl)-2-naphthalenyl)ethynyl]benzoic acid] | 6% | 1% | 8.00 % of RA activity
Cc1nc(C2=CCC(C)(C)c3ccc(C#Cc4ccc(C(=O)O)cc4)cc32)sc1C [Compound 32] | 2% | 1% | 0.00 % of RA activity
Cc1ccc(C2=CCC(C)(C)c3ccc(C#Cc4ccc(C(=O)O)cc4)cc32)s1 [Compound 34, 4-[(5,6-Dihydro-5,5-dimethyl-8-(5-methyl-2-thienyl)-2-naphthalenyl)ethynyl]benzoic acid] | 3% | 1% | 0.00 % of RA activity
Cc1ccc(C2=CCC(C)(C)c3ccc(C(=O)Nc4ccc(C(=O)O)cc4)cc32)cc1 [Compound 36, 4-[[(5,6-Dihydro-5,5-dimethyl-8-(4-methylphenyl)-2-naphthalenyl)carbonyl]amino]-benzoic acid] | 2% | 1% | 7.00 % of RA activity
Cc1ccc(C2=CCC(C)(C)c3ccc(C(=O)Oc4ccc(C(=O)O)cc4)cc32)cc1 [Compound 39, 4-[[(5,6-Dihydro-5,5-dimethyl-8-(4-methylphenyl)-2-naphthalenyl)carbonyl]oxy]-benzoic acid] | 1% | 2% | 0.00 % of RA activity
Cc1ccc(C2=CCC(C)(C)c3ccc(C(=O)Nc4ccc(C(=O)O)c(F)c4)cc32)cc1 [Compound 41, 2-Fluoro-4-[[(5,6-dihydro-5,5-dimethyl-8-(4methylphenyl)-2-naphthalenyl)carbonyl]amino]-benzoic acid] | 3% | 1% | 0.00 % of RA activity
Cc1ccc(C2=CCC(C)(C)c3ccc(/C=C/c4ccc(C(=O)O)cc4)cc32)cc1 [Compound 45] | 0% | 3% | 8.00 % of RA activity
Cc1ccc(C2=CCC(C)(C)c3ccc(N=Nc4ccc(C(=O)O)cc4)cc32)cc1 [Compound 46b, 4-[(5,6-dihydro-5,5-dimethyl-8-(4-methylphenyl)-2-naphthalenyl)azo]-benzoic acid] | 4% | 2% | 0.00 % of RA activity
CC(/C=C/C=C(\C)c1ccc2c(c1)C(c1ccc(C)cc1)=CCC2(C)C)=C\C(=O)O [Compound 52, (E,E,E)-3-methyl-7-(5,6-dihydro-5,5-dimethyl-8-(4-methylphenyl)-2-naphthalenyl)-2,4,6-octatrienoic acid] | 10% | 0% | 0.00 % of RA activity
